Test results: PubChem BioAssay AID248 (DTP/NCI, 2004)
“And” between values parts separate entries of the source, which are not always exact repeats. Equal values may be shown once. Toxic doses and inconclusive results are not listed. Cut-off read from the data, not from the text of the source: active = T/C of 150% or more; inactive = T/C below 125%.

Tested on: L1210 leukemia ip in BDF1 mice, survival T/C
Test: NCI In Vivo Anticancer Drug Screen. Data for tumor model L1210 Leukemia (intraperitoneal) in B6D2F1 (BDF1) mice
Conditions: endpoint: mean survival time, higher = longer survival
Outline: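 Value reflects the ratio of survival in compound-treated mice to survival in vehicle-treated controls, with both groups carrying the same transplanted tumor.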

[1] = dose: 100.0 mg/kg/injection, schedule: Q04DX002 (ip), vehicle: Klucel (hydroxypropylcellulose) (HPC)
[2] = dose: 200.0 mg/kg/injection, schedule: Q04DX002 (ip), vehicle: Klucel (hydroxypropylcellulose) (HPC)
[3] = dose: 400.0 mg/kg/injection, schedule: Q04DX002 (ip), vehicle: Klucel (hydroxypropylcellulose) (HPC)
[4] = dose: 100.0 mg/kg/injection, schedule: Q01DX001 (ip), vehicle: saline with Tween-80
[5] = dose: 200.0 mg/kg/injection, schedule: Q01DX001 (ip), vehicle: saline with Tween-80
[6] = dose: 400.0 mg/kg/injection, schedule: Q01DX001 (ip), vehicle: saline with Tween-80
[7] = dose: 100.0 mg/kg/injection, schedule: Q01DX001 (ip), vehicle: saline
[8] = dose: 200.0 mg/kg/injection, schedule: Q01DX001 (ip), vehicle: saline
[9] = dose: 400.0 mg/kg/injection, schedule: Q01DX001 (ip), vehicle: saline
[10] = dose: 100.0 mg/kg/injection, schedule: Q01DX009 (ip), vehicle: Klucel (hydroxypropylcellulose) (HPC)
[11] = dose: 200.0 mg/kg/injection, schedule: Q01DX009 (ip), vehicle: Klucel (hydroxypropylcellulose) (HPC)
[12] = dose: 400.0 mg/kg/injection, schedule: Q01DX009 (ip), vehicle: Klucel (hydroxypropylcellulose) (HPC)
[13] = dose: 100.0 mg/kg/injection, schedule: Q04DX003 (ip), vehicle: Klucel (hydroxypropylcellulose) (HPC)
[14] = dose: 200.0 mg/kg/injection, schedule: Q04DX003 (ip), vehicle: Klucel (hydroxypropylcellulose) (HPC)
[15] = dose: 400.0 mg/kg/injection, schedule: Q04DX003 (ip), vehicle: Klucel (hydroxypropylcellulose) (HPC)
[16] = dose: 50.0 mg/kg/injection, schedule: Q01DX009 (ip), vehicle: Klucel (hydroxypropylcellulose) (HPC)

Measured: T/C

O=C1CCC(=O)N1C(=O)c1ccccc1
inactive: dose: 100.0 mg/kg/injection, schedule: Q01DX Z (ip), vehicle: methylcellulose (MC) 104 % of control | dose: 150.0 mg/kg/injection, schedule: Q01DX Z (ip), vehicle: methylcellulose (MC) 102 % of control | dose: 225.0 mg/kg/injection, schedule: Q01DX Z (ip), vehicle: methylcellulose (MC) 95 % of control

CC(=O)N(C)c1ccc(NC(=O)Nc2cc([N+](=O)[O-])ccc2C)cc1
inactive: [1] 106 % of control | [2] 108 % of control | [3] 101 % of control

CCCC[N+](CC)(CC)CCOC(=O)C1C2CC3OC(=O)C1C3C2 (centres undefined)
inactive: dose: 100.0 mg/kg/injection, schedule: Q04DX003 (ip), vehicle: saline 101 % of control

Cc1nccnc1S(=O)c1ccc(Br)cc1 (centres undefined)
inactive: dose: 100.0 mg/kg/injection, schedule: Q01DX001 (ip), vehicle: Klucel (hydroxypropylcellulose) (HPC) 98 % of control | dose: 200.0 mg/kg/injection, schedule: Q01DX001 (ip), vehicle: Klucel (hydroxypropylcellulose) (HPC) 95 % of control | dose: 400.0 mg/kg/injection, schedule: Q01DX001 (ip), vehicle: Klucel (hydroxypropylcellulose) (HPC) 92 % of control

CC(C)CCCC(C)C1CCC2C3CCC4CC(I)CCC4(C)C3CCC12C (centres undefined)
inactive: [4] 93 % of control | [5] 95 % of control | [6] 90 % of control

COc1ccc(Br)c([N+](=O)[O-])c1
inactive: [7] 103 % of control | [8] 97 % of control | [9] 103 % of control

CSc1ccc(OC(=O)Nc2ccccc2[N+](=O)[O-])cc1C
inactive: [10] 109 % of control | [11] 94 % of control | [12] 92 % of control

CS/C(N)=N/N=C(\N)SC
inactive: dose: 25.0 mg/kg/injection, schedule: Q01DX009 (ip), vehicle: saline with Tween-80 101 % of control | dose: 25.0 mg/kg/injection, schedule: Q04DX003 (ip), vehicle: saline with Tween-80 91 % of control | dose: 50.0 mg/kg/injection, schedule: Q01DX009 (ip), vehicle: saline with Tween-80 95 % of control | dose: 50.0 mg/kg/injection, schedule: Q04DX003 (ip), vehicle: saline with Tween-80 90 % of control | [4] 102 % of control | dose: 100.0 mg/kg/injection, schedule: Q04DX003 (ip), vehicle: saline with Tween-80 111 % of control

O=S(=O)(Cc1ccc(Cl)cc1)c1ccccc1-n1cccc1
inactive: [13] 90 % of control | [14] 92 % of control | [15] 100 % of control

Cc1cc(C#N)n(O)c1
inactive: [16] 103 % of control | [10] 100 % of control | [11] 101 % of control

O=C1OC(=O)C2C3C=CC3C12 (centres undefined)
inactive: [1] 95 % of control | [2] 100 % of control | [3] 92 % of control

Cn1cnc([N+](=O)[O-])c1C(N)=O
inactive: [1] 88 % of control | [2] 95 % of control | [3] 88 % of control

O=C1c2ccccc2C(=O)N1Cc1c(Cl)cccc1[N+](=O)[O-]
inactive: [10] 107 % of control | [11] 103 % of control | [12] 92 % of control

O=C(c1ccccc1)C1CCCC1
inactive: [1] 89 % of control | [2] 105 % of control

CCCCCCC(=O)/C=C/c1ccc(Cl)c(Cl)c1
inactive: dose: 100.0 mg/kg/injection, schedule: Q01DX009 (ip), vehicle: acetone 92 % of control | dose: 100.0 mg/kg/injection, schedule: Q04DX003 (ip), vehicle: acetone 101 % of control | dose: 200.0 mg/kg/injection, schedule: Q01DX009 (ip), vehicle: acetone 92 % of control | dose: 200.0 mg/kg/injection, schedule: Q04DX003 (ip), vehicle: acetone 93 % of control | dose: 400.0 mg/kg/injection, schedule: Q04DX003 (ip), vehicle: acetone 98 % of control

CC(=O)OCCOc1ccc(C(C)(C)C)cc1
inactive: [16] 100 % of control | [10] 86 % of control and 92 % of control | [1] 98 % of control | [11] 111 % of control | [2] 102 % of control | dose: 225.0 mg/kg/injection, schedule: Q01DX Z (ip), vehicle: carboxymethylcellulose (CMC) 95 % of control | [3] 115 % of control | dose: 450.0 mg/kg/injection, schedule: Q01DX Z (ip), vehicle: carboxymethylcellulose (CMC) 102 % of control

CN(C)C1CCC(N=Nc2cc([N+](=O)[O-])ccc2C(=O)O)CC1 (centres undefined)
inactive: dose: 75.0 mg/kg/injection, schedule: Q01DX001 (ip), vehicle: acetone 105 % of control | dose: 150.0 mg/kg/injection, schedule: Q01DX001 (ip), vehicle: acetone 97 % of control | dose: 300.0 mg/kg/injection, schedule: Q01DX001 (ip), vehicle: acetone 90 % of control

COc1cc(C)ccc1C1OC(=O)c2c1ccc(OC)c2OC (centres undefined)
inactive: [7] 97 % of control | [8] 101 % of control | [9] 92 % of control

O=C(O)c1ccc([N+](=O)[O-])cc1O
inactive: dose: 100.0 mg/kg/injection, schedule: Q01DX001 (ip), vehicle: carboxymethylcellulose (CMC) 101 % of control | dose: 100.0 mg/kg/injection, schedule: Q04DX002 (ip), vehicle: saline with Tween-80 95 % of control | dose: 200.0 mg/kg/injection, schedule: Q01DX001 (ip), vehicle: carboxymethylcellulose (CMC) 97 % of control | dose: 200.0 mg/kg/injection, schedule: Q04DX002 (ip), vehicle: saline with Tween-80 98 % of control | dose: 400.0 mg/kg/injection, schedule: Q04DX002 (ip), vehicle: saline with Tween-80 102 % of control

C=C(Cl)CSC(C)(C)C
inactive: dose: 100.0 mg/kg/injection, schedule: Q01DX009 (ip), vehicle: saline 118 % of control | dose: 100.0 mg/kg/injection, schedule: Q04DX002 (ip), vehicle: saline 100 % of control | dose: 200.0 mg/kg/injection, schedule: Q01DX009 (ip), vehicle: saline 100 % of control | dose: 200.0 mg/kg/injection, schedule: Q04DX002 (ip), vehicle: saline 97 % of control | dose: 400.0 mg/kg/injection, schedule: Q01DX009 (ip), vehicle: saline 93 % of control | dose: 400.0 mg/kg/injection, schedule: Q04DX002 (ip), vehicle: saline 93 % of control

CC(=O)NCCO
inactive: [4] 100 % of control | [5] 105 % of control | [6] 100 % of control

Nc1c(Cl)ncnc1NCCCCCO
inactive: [13] 100 % of control | [14] 94 % of control | [15] 107 % of control

N#Cc1nccc2ccccc12
inactive: [1] 106 % of control | [2] 103 % of control | [3] 100 % of control

CC1CN1CC1CO1 (centres undefined)
inactive: dose: 0.5 mg/kg/injection, schedule: Q01DX001 (ip), vehicle: saline 98 % of control | dose: 0.5 mg/kg/injection, schedule: Q01DX009 (ip), vehicle: acetone 97 % of control | dose: 0.5 mg/kg/injection, schedule: Q04DX003 (ip), vehicle: acetone 104 % of control | dose: 1.0 mg/kg/injection, schedule: Q01DX001 (ip), vehicle: saline 95 % of control | dose: 1.0 mg/kg/injection, schedule: Q01DX009 (ip), vehicle: acetone 96 % of control | dose: 1.0 mg/kg/injection, schedule: Q04DX003 (ip), vehicle: acetone 101 % of control | dose: 2.0 mg/kg/injection, schedule: Q01DX001 (ip), vehicle: saline 98 % of control | dose: 2.0 mg/kg/injection, schedule: Q01DX009 (ip), vehicle: acetone 100 % of control | dose: 2.0 mg/kg/injection, schedule: Q04DX003 (ip), vehicle: acetone 104 % of control | dose: 2.97 mg/kg/injection, schedule: Q01DX009 (ip), vehicle: acetone 97 % of control | dose: 4.5 mg/kg/injection, schedule: Q01DX009 (ip), vehicle: acetone 97 % of control | dose: 6.75 mg/kg/injection, schedule: Q01DX009 (ip), vehicle: acetone 115 % of control | dose: 9.9 mg/kg/injection, schedule: Q01DX009 (ip), vehicle: acetone 102 % of control | dose: 15.0 mg/kg/injection, schedule: Q01DX009 (ip), vehicle: acetone 100 % of control | dose: 22.5 mg/kg/injection, schedule: Q01DX009 (ip), vehicle: acetone 94 % of control

CC1(C)C=C(C(N)=O)C(C)(C)N1O
inactive: dose: 50.0 mg/kg/injection, schedule: Q01DX009 (ip), vehicle: other 98 % of control | dose: 100.0 mg/kg/injection, schedule: Q01DX009 (ip), vehicle: other 101 % of control | dose: 200.0 mg/kg/injection, schedule: Q01DX009 (ip), vehicle: other 95 % of control
